In ChEMBL document CHEMBL1221184, “Identifying off-target effects and hidden phenotypes of drugs in human cells” (Nat Chem Biol, 2006):
pIC50: −log10 of the molar value. The source made the active and inactive calls. The rule behind the calls is not given here. Residues, ends and D or L forms follow the SMILES beside them. *: point of attachment. Cbz = O=C(OCc1ccccc1)*

Experiments:
PC-3 [1] = assay: Antiproliferative activity against human PC3 cells at 12.5 uM after 120 hrs by MTT assay relative to DMSO; assay type: functional
PC-3 [2] = assay: Antiproliferative activity against human PC3 cells at 100 nM after 120 hrs by MTT assay relative to DMSO; assay type: functional
PC-3 [3] = assay: Antiproliferative activity against human PC3 cells at 10 ng/ml after 120 hrs by MTT assay relative to DMSO; assay type: functional
PC-3 [4] = assay: Antiproliferative activity against human PC3 cells at 1.5 uM after 120 hrs by MTT assay relative to DMSO; assay type: functional
HEK293 [5] = assay: Inhibition of proteasome expressed in HEK293 cells assessed as effect on CyclinD1-CDK4 interaction complexes by EYFP and/or YFP Venus fragment based reporter gene assay
HEK293 [6] = assay: Inhibition of proteasome expressed in HEK293 cells assessed as effect on p53-p53 interaction complexes by EYFP and/or YFP Venus fragment based reporter gene assay
HEK293 [7] = assay: Inhibition of proteasome expressed in HEK293 cells assessed as effect on p53-Chk1 interaction complexes by EYFP and/or YFP Venus fragment based reporter gene assay
Cofilin-1 (Homo sapiens) [8] = biological target: Cofilin-1 (Homo sapiens) (UniProt P23528); assay: Effect on cofilin1 expressed in HEK293 cells assessed as effect on cofilin1; Limk2 interaction complexes by EYFP and/or YFP Venus fragment based reporter gene assay; assay type: cell-based
Chain of Cofilin-1 (Homo sapiens) (P23528 whole entry, the tested form may be a part): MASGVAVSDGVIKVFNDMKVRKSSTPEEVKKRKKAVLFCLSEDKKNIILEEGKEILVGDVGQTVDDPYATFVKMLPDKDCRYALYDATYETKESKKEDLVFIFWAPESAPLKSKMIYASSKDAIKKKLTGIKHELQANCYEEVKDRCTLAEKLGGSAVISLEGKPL

PC-3 [9] = assay: Antiproliferative activity against human PC3 cells at 1 uM after 120 hrs by MTT assay relative to DMSO; assay type: functional
HEK293 [10] = assay: Inhibition of proteasome expressed in HEK293 cells assessed as effect on Pin1-Jun interaction complexes by EYFP and/or YFP Venus fragment based reporter gene assay
HEK293 [11] = assay: Inhibition of proteasome expressed in HEK293 cells assessed as effect on E6:E6AP interaction complexes by EYFP and/or YFP Venus fragment based reporter gene assay
PC-3 [12] = assay: Antiproliferative activity against human PC3 cells at 200 nM after 120 hrs by MTT assay relative to DMSO; assay type: functional
PC-3 [13] = assay: Antiproliferative activity against human PC3 cells after 120 hrs by MTT assay; assay type: functional, cell-based; details: PC-3, 120 h
LoVo = assay: Antiproliferative activity against human LoVo cells after 120 hrs by MTT assay; assay type: functional, cell-based
[14] = Antiproliferative activity against human U87MG cells after 120 hrs by MTT assay; assay type: functional, cell-based, U-87MG ATCC; details: U-87 MG
A549 = assay: Antiproliferative activity against human A549 cells after 120 hrs by MTT assay; assay type: functional, cell-based; details: A549, 120 h
MIA PaCa-2 = assay: Antiproliferative activity against human MIAPaCa2cells after 120 hrs by MTT assay; assay type: functional, cell-based; details: MIA PaCa-2, 120 h
PC-3 [15] = assay: Antiproliferative activity against human PC3 cells at 2.5 uM after 120 hrs by MTT assay relative to DMSO; assay type: functional
PC-3 [16] = assay: Antiproliferative activity against human PC3 cells at 15 uM after 120 hrs by MTT assay relative to DMSO; assay type: functional
[17] = biological target: Transcription factor Jun (Homo sapiens) (UniProt P05412); assay: Inhibition of c-Jun expressed in HEK293 cells assessed as induction of protein interaction in presence of camptothecin with Pin1 by EYFP based reporter gene assay; assay type: cell-based
Chain of Transcription factor Jun (Homo sapiens) (P05412 whole entry): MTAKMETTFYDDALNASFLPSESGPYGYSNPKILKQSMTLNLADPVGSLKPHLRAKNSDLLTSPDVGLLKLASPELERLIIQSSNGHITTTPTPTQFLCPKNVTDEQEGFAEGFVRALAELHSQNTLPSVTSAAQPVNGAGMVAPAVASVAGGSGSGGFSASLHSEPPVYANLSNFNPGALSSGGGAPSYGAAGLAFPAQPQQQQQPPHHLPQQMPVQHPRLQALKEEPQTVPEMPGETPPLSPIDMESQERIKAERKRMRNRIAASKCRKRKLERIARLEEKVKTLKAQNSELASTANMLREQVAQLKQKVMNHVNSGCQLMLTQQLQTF

PC-3 [18] = assay: Antiproliferative activity against human PC3 cells at 300 nM after 120 hrs by MTT assay relative to DMSO; assay type: functional
[19] = biological target: Cyclin-dependent kinase 1 (Homo sapiens) (UniProt P06493); assay: Effect on Cdc2 expressed in HEK293 cells assessed as effect on Cdc2:Cdc25C interaction complexes in presence of camptothecin by EYFP and/or YFP Venus fragment based reporter gene assay; assay type: cell-based
Chain of Cyclin-dependent kinase 1 (Homo sapiens) (P06493 whole entry, looked up, the tested form may be a part): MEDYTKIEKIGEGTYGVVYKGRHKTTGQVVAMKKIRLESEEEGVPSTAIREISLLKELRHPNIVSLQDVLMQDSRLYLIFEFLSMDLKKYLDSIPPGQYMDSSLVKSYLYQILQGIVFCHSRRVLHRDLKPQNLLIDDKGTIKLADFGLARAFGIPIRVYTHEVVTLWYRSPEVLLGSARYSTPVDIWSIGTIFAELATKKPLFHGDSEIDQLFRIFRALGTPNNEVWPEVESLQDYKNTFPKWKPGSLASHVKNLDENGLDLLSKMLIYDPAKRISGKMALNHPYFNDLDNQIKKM

[20] = biological target: Cyclin-dependent kinase 1 (Homo sapiens) (UniProt P06493); assay: Effect on Cdc2 expressed in HEK293 cells assessed as effect on Cdc2:Cdc25A interaction complexes in presence of camptothecin by EYFP and/or YFP Venus fragment based reporter gene assay; assay type: cell-based
Cofilin-1 (Homo sapiens) [21] = biological target: Cofilin-1 (Homo sapiens) (UniProt P23528); assay: Effect on cofilin1 expressed in HEK293 cells assessed as effect on cofilin1; Limk2 interaction complexes in presence of camptothecin by EYFP and/or YFP Venus fragment based reporter gene assay; assay type: cell-based
PC-3 [22] = assay: Antiproliferative activity against human PC3 cells at 250 nM after 120 hrs by MTT assay relative to DMSO; assay type: functional
PC-3 [23] = assay: Antiproliferative activity against human PC3 cells at 10 uM after 120 hrs by MTT assay relative to DMSO; assay type: functional
Cofilin-1 (Homo sapiens) [24] = biological target: Cofilin-1 (Homo sapiens) (UniProt P23528); assay: Inhibition of cofilin1 expressed in HEK293 cells assessed as effect on cofilin1; Limk2 interaction complexes by EYFP and/or YFP Venus fragment based reporter gene assay; assay type: cell-based

With O=c1c(-c2ccc(O)cc2)coc2cc(O)cc(O)c12 [GENISTEIN] the “fold change (FC)” value (PC-3 [1]) was 1.074.

For Cn1c2ccccc2c2c3c(c4c5ccccc5n(CCC#N)c4c21)CNC3=O [GO-6976], the “fold change (FC)” value (PC-3 [2]) was 1.119.

In the case of CCC(=C/[C@H](C)C/C=C/C(C)=C/[C@@H](C)C(=O)[C@@H](C)[C@H](O)[C@@H](C)C/C(C)=C/C(=O)O)/C=C/[C@@H]1OC(=O)C=C[C@@H]1C [LEPTOMYCIN B], the “fold change (FC)” value (PC-3 [3]) was 0.262.

In the case of N#Cc1ccc(C(c2ccc(C#N)cc2)n2cncn2)cc1 [LETROZOLE], the “fold change (FC)” value (PC-3 [4]) was 1.001.

For CC(C)C[C@@H](C=O)NC(=O)[C@H](CC(C)C)NC(=O)[C@H](CC(C)C)NC(=O)OCc1ccccc1 [MG-132] (Cbz-Leu-Leu-Leu-aldehyde), the inhibition (HEK293 [5]) was “Active”, the inhibition (HEK293 [6]) was “Active” and the inhibition (HEK293 [7]) was “Active”. The Activity (Cofilin-1 (Homo sapiens) [8]) was “Active”, the “fold change (FC)” value (PC-3 [9]) was 0.255 and the inhibition (HEK293 [10]) was “Active”. The inhibition (HEK293 [11]) was “Active”.

With Cc1[nH]c(=O)c(C#N)cc1-c1ccncc1 [MILRINONE] the “fold change (FC)” value (PC-3 [12]) was 1.015.

With O=C(Nc1ccc([N+](=O)[O-])cc1Cl)c1cc(Cl)ccc1O [NICLOSAMIDE] the pIC50 (PC-3 [13]) was 6.40, the pIC50 (LoVo) was 6.15 and the “fold change (FC)” value (PC-3 [9]) was 0.408. It also gave a pIC50 [14] of 6.40, a pIC50 (A549) of 6.40 and a pIC50 (MIA PaCa-2) of 5.96.

In the case of CC(=O)O[C@H]1C(=O)[C@@]2(C)[C@H]([C@H](OC(=O)c3ccccc3)[C@]3(O)C[C@H](OC(=O)[C@H](O)[C@@H](NC(=O)c4ccccc4)c4ccccc4)C(C)=C1C3(C)C)[C@]1(OC(C)=O)CO[C@@H]1C[C@@H]2O [PACLITAXEL], the “fold change (FC)” value (PC-3 [15]) was 0.281.

In the case of CN(CCOc1ccc(CC2SC(=O)NC2=O)cc1)c1ccccn1 (centres undefined) [ROSIGLITAZONE], the “fold change (FC)” value (PC-3 [16]) was 0.925.

With C=C(C)[C@H]1Cc2c(ccc3c2O[C@@H]2COc4cc(OC)c(OC)cc4[C@@H]2C3=O)O1 [ROTENONE] the Activity [17] was “Active”, the “fold change (FC)” value (PC-3 [18]) was 0.548 and the Activity [19] was “Active”. The Activity [20] was “Active” and the Activity (Cofilin-1 (Homo sapiens) [21]) was “Active”.

For COc1ccc(-n2nc(C(F)(F)F)cc2-c2ccc(Cl)cc2)cc1 [SC-560], the “fold change (FC)” value (PC-3 [22]) was 1.036.

For CN[C@H]1CC[C@@H](c2ccc(Cl)c(Cl)c2)c2ccccc21 [SERTRALINE], the “fold change (FC)” value (PC-3 [23]) was 0.226, the Activity [17] was “Active” and the Activity [19] was “Active”. The Activity [20] was “Active”, the inhibition (Cofilin-1 (Homo sapiens) [24]) was “Active” and the Activity (Cofilin-1 (Homo sapiens) [21]) was “Active”.

In the case of CO[C@H]1C[C@@H]2CC[C@@H](C)[C@@](O)(O2)C(=O)C(=O)N2CCCC[C@H]2C(=O)O[C@H]([C@H](C)C[C@@H]2CC[C@@H](O)[C@H](OC)C2)CC(=O)[C@H](C)/C=C(\C)[C@@H](O)[C@@H](OC)C(=O)[C@H](C)C[C@H](C)/C=C/C=C/C=C/1C [SIROLIMUS], the “fold change (FC)” value (PC-3 [22]) was 0.401.

In the case of O=C1CCC(N2C(=O)c3ccccc3C2=O)C(=O)N1 (centres undefined) [THALIDOMIDE], the “fold change (FC)” value (PC-3 [22]) was 0.992.
